This note sets out measurements from patent US10570140B2, “Selective inhibitors of protein arginine methyltransferase 5 (PRMT5)” (Prelude Therapeutics, Incorporated, priority 2017, dated 2020).

pIC50: −log10 of the molar value.

One assay deals with Granta-519 cells. Put plainly: Cell proliferation assay on Granta-519 cells (CCK-8, day 10). It counts as cell-based. The settings on record: Homo sapiens, 240 h, Granta-519 cell line, read-out: Prolif. IC50. The procedure: Cell Proliferation Assay to Determine IC50 on Granta-519 Cells
Granta-519 cells were maintained in PRMI 1640 (Corning Cellgro, Catalog #: 10-040-CV) medium supplemented with 10% v/v FBS (GE Healthcare, Catalog #: SH30910.03). Compounds were dissolved in DMSO to make 10 mM stocks and stored at −20° C. Nine-point, 3-fold serial dilutions were made with DMSO with top concentration at 1 mM (working stocks).
On day of experiment, compound working stocks were further diluted at 1:50 with fresh medium in 96 well plate, and 10 μL of diluted drugs were added to a new 96 well plate for proliferation assay. Cells growing at exponential phase were spun down at 1500 rpm for 4 min and resuspend in fresh medium to reach a density of 0.5×10^6 cells/ml. 200 ul of cells were added to 96 well plate containing diluted drugs and incubated for 3 days. DMSO was used a vehicle control.
One day 3, 10 μL of Cell Counting Kit-8 (CCK-8, Jojindo, CK04-13) solution was added to a new 96 well plate. Cells incubated with drugs for 3 days were resuspended by pipetting up and down, and 100 μL of cells were transferred to 96 well plate containing CCK-8 reagent to measure viable cells. Plates were incubated in CO2 incubator for 2 hours and OD450 values were measured with a microplate reader (iMark microplate reader, Bio-Rad).
For re-plating, compound working stocks were diluted at 1:50 with fresh medium and 10 μL of diluted drugs were added to a new 96 well plate. Cells from Day 3 plate (50 ul) were added to 96 well plate containing fresh drug and additional 150 μL of fresh medium was added to reach 200 μL volume. Plate was returned to CO2 incubator and incubated for 3 more days. Viable cells measurement and re-plating were repeated on day 6, and the final viable cells measurement was taken on day 10.
Percentage of viable cells, relative to DMSO vehicle control, were calculated and plotted in Graphpad Prism ([Inhibitor] vs. normalized response−Variable slope) to determine proliferation IC50 values on day 10.

The test system of another assay is sDMA. Put plainly: Western blot for symmetric di-methyl arginine (sDMA) IC50 in Granta cells. It counts as cell-based. The settings on record: Homo sapiens, 72 h; Granta-519 cell line, 3 days. On the technique in general: Immunoblotting shows a protein as a band on a membrane.
Another assay has as its target PRMT5/MEP50 complex (Homo sapiens (Human), UniProt O14744). Put plainly: PRMT5 biochemical assay (3H-SAM filter plate, histone H2A substrate). The settings on record: PRMT5/MEP50 5 nM, histone H2A 5 μM, SAM 1 μM; read-out: PRMT5 IC50. The procedure:
Biochemical Assay Protocol
Compounds were solubilized and 3-fold diluted in 100% DMSO. […] Standard reactions were performed in a total volume of 50 μl in assay buffer, with histone H2A (5 μM final) as substrate. To this was added the PRMT5/MEP50 complex diluted to provide a final assay concentration of 5 nM and the compounds were allowed to preincubate for 15 to 20 minutes at room temperature. The reaction was initiated by adding S-[3H-methyl]-adenosyl-L-methionine (PerkinElmer) to final concentration of 1 μM. Following a 60 minutes incubation at 30° C., the reaction was stopped by adding 100 μL of 20% TCA. Each reaction was spotted onto filter plate (MultiScreen FB Filter Plate, Millipore), and washed 5 times with PBS buffer, Scintillation fluid was added to the filter plate and read in a scintillation counter. IC50 values were determined by fitting the data to the standard 4 parameters with Hill Slope using GraphPad Prism software.

Sequence of PRMT5/MEP50 complex (O14744 whole entry): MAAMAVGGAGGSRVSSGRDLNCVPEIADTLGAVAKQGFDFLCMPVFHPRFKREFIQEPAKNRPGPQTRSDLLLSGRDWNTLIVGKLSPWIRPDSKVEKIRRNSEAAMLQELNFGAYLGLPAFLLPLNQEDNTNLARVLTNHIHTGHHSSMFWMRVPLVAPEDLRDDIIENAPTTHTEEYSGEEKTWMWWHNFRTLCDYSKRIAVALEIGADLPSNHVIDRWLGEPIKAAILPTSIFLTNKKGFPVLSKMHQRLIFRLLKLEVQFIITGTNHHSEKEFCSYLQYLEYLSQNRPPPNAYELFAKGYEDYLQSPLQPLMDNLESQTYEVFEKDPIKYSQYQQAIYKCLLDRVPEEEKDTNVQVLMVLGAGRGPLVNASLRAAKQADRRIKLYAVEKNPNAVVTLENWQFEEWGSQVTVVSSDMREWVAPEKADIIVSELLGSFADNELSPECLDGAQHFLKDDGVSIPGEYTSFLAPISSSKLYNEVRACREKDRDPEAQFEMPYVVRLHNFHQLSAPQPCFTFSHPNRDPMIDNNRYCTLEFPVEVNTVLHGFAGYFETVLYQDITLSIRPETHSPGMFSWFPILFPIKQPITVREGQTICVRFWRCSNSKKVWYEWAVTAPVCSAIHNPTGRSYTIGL
Sequence of PRMT5/MEP50 complex (Q9BQA1 whole entry partner): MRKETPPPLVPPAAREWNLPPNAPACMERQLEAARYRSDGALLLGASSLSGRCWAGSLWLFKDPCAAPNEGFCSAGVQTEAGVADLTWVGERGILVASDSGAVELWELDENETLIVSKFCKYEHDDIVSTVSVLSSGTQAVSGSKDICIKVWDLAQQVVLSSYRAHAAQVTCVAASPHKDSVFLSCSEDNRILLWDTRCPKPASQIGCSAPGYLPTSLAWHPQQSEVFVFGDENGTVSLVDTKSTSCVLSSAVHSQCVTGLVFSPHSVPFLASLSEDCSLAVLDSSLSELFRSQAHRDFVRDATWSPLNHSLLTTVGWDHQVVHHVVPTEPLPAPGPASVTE

With `Cc1ncnc2c1ccn2[C@@H]1O[C@H]([C@H](O)c2ccc(Cl)c(Cl)c2)[C@@](C)(O)[C@H]1O` [Example 58, (2R,3S,4R,5R)-2-((R)-(3,4-dichlorophenyl)(hydroxy)methyl)-3-methyl-5-(4-methyl-7H-pyrrolo[2,3-d]pyrimidin-7-yl)tetrahydrofuran-3,4-diol], the pIC50 was 5.00 with Granta-519 cells, 5.50 in the assay on sDMA and 7.96 at PRMT5/MEP50 complex.

As to `C[C@@]1(O)[C@@H](COc2cccc(CN)c2)O[C@@H](n2ccc3c(N)ncnc32)[C@@H]1O` [Example 22, (2R,3S,4R,5R)-5-(4-amino-7H-pyrrolo[2,3-d]pyrimidin-7-yl)-2-((3-(aminomethyl)phenoxy)methyl)-3-methyltetrahydrofuran-3,4-diol], the pIC50 was 4.22 in the assay on sDMA and 6.90 at PRMT5/MEP50 complex.

Consider `C#C[C@@]1(O)[C@@H](COc2ccc3ccc(N)nc3c2)O[C@@H](n2ccc3c(N)ncnc32)[C@@H]1O` [Example 3, (2R,3S,4R,5R)-5-(4-amino-7H-pyrrolo[2,3-d]pyrimidin-7-yl)-2-(((2-aminoquinolin-7-yl)oxy)methyl)-3-ethynyltetrahydrofuran-3,4-diol], for which the pIC50 was 7.35 with sDMA and 8.80 at PRMT5/MEP50 complex.

On to `Cc1ncnc2c1ccn2[C@@H]1O[C@H](COc2ccn3c(C)cnc3c2)[C@@](C)(O)[C@H]1O` [Example 67, (2R,3S,4R,5R)-3-methyl-5-(4-methyl-7H-pyrrolo[2,3-d]pyrimidin-7-yl)-2-(((3-methylimidazo[1,2-a]pyridin-7-yl)oxy)methyl)tetrahydrofuran-3,4-diol], for which the pIC50 in the assay on sDMA is 7.34; on PRMT5/MEP50 complex, 9.00.

On to `Cc1cc([C@@H](O)[C@H]2O[C@@H](n3ccc4c(C)ncnc43)[C@H](O)[C@]2(C)O)ccc1Cl` [Example 57, (2R,3S,4R,5R)-2-((R)-(4-chloro-3-methylphenyl)(hydroxy)methyl)-3-methyl-5-(4-methyl-7H-pyrrolo[2,3-d]pyrimidin-7-yl)tetrahydrofuran-3,4-diol], for which the pIC50 with Granta-519 cells is 6.04; on PRMT5/MEP50 complex it was 7.96.

On to `Cc1ncnc2c1ccn2[C@@H]1O[C@H](COc2ccc3cc(Br)c(N)nc3c2)[C@@](C)(O)[C@H]1O` [Example 55, (2R,3S,4R,5R)-2-(((2-amino-3-bromoquinolin-7-yl)oxy)methyl)-3-methyl-5-(4-methyl-7H-pyrrolo[2,3-d]pyrimidin-7-yl)tetrahydrofuran-3,4-diol], for which the pIC50 was 8.29 with sDMA and 9.10 at PRMT5/MEP50 complex.

In the case of `C[C@@]1(O)[C@@H]([C@H](O)c2ccc(Cl)cc2)O[C@@H](n2ccc3c(N)ncnc32)[C@@H]1O` [Example 26, (2R,3S,4R,5R)-5-(4-amino-7H-pyrrolo[2,3-d]pyrimidin-7-yl)-2-((R)-(4-chlorophenyl)(hydroxy)methyl)-3-methyltetrahydrofuran-3,4-diol], the figures for the pIC50 in the assay with Granta-519 cells, in the assay on sDMA and at PRMT5/MEP50 complex were 6.18, 7.29 and 8.32, respectively.

Turning to `C[C@@]1(O)[C@@H](COc2ccc3ccc(N)nc3c2)O[C@@H](n2ccc3c(N)ncnc32)[C@@H]1O` [Example 1, (2R,3S,4R,5R)-5-(4-amino-7H-pyrrolo[2,3-d]pyrimidin-7-yl)-2-(((2-aminoquinolin-7-yl)oxy)methyl)-3-methyltetrahydrofuran-3,4-diol], the pIC50 was 7.40 in the assay on Granta-519 cells, 7.82 with sDMA and 9.12 on PRMT5/MEP50 complex.

As to `C[C@@]1(O)[C@@H](Cc2ccc(Cl)c(Cl)c2)O[C@@H](n2ccc3c(N)ncnc32)[C@@H]1O` [Example 50, (2R,3S,4R,5R)-5-(4-amino-7H-pyrrolo[2,3-d]pyrimidin-7-yl)-2-(3,4-dichlorobenzyl)-3-methyltetrahydrofuran-3,4-diol], the pIC50 was 5.05 in the assay on sDMA and 7.77 at PRMT5/MEP50 complex.

Turning to `Nc1ccc2ccc(OC[C@H]3O[C@@H](n4ccc5c(N)ncnc54)[C@H](O)[C@@]3(O)C(F)(F)F)cc2n1` [Example 2, (2R,3S,4R,5R)-5-(4-amino-7H-pyrrolo[2,3-d]pyrimidin-7-yl)-2-(((2-aminoquinolin-7-yl)oxy)methyl)-3-(trifluoromethyl)tetrahydrofuran-3,4-diol], the pIC50 is 7.68 with sDMA and 8.72 on PRMT5/MEP50 complex.

Turning to `Cc1ncnc2c1ccn2[C@@H]1O[C@H]([C@H](O)c2ccc(C(F)(F)F)cc2)[C@@](C)(O)[C@H]1O` [Example 62, (2R,3S,4R,5R)-2-((R)-hydroxy(4-(trifluoromethyl)phenyl)methyl)-3-methyl-5-(4-methyl-7H-pyrrolo[2,3-d]pyrimidin-7-yl)tetrahydrofuran-3,4-diol], the pIC50 in the assay on sDMA is 6.38; at PRMT5/MEP50 complex, 8.15.

As for `C[C@@]1(O)[C@@H]([C@H](O)c2ccc(F)c(C(F)(F)F)c2)O[C@@H](n2ccc3c(N)ncnc32)[C@@H]1O` [Example 63, (2R,3S,4R,5R)-5-(4-amino-7H-pyrrolo[2,3-d]pyrimidin-7-yl)-2-((R)-(4-fluoro-3-(trifluoro-methyl)phenyl)(hydroxy)methyl)-3-methyltetrahydrofuran-3,4-diol], the negative-log IC50 (pIC50) in the assay with Granta-519 cells was 6.64; in the assay on sDMA, 7.15; on PRMT5/MEP50 complex, 8.52.

For `Cc1cc([C@@H](O)[C@H]2O[C@@H](n3ccc4c(N)ncnc43)[C@H](O)[C@]2(C)O)ccc1Cl` [Example 56, (2R,3S,4R,5R)-5-(4-amino-7H-pyrrolo[2,3-d]pyrimidin-7-yl)-2-((R)-(4-chloro-3-methylphenyl)(hydroxy)methyl)-3-methyltetrahydrofuran-3,4-diol], the pIC50 was 6.69 in the assay with Granta-519 cells and 7.17 at PRMT5/MEP50 complex.

Turning to `C[C@@]1(O)[C@@H](COc2ccc3ccc(N)nc3c2)O[C@@H](n2cc(F)c3c(N)ncnc32)[C@@H]1O` [Example 6, (2R,3S,4R,5R)-5-(4-amino-5-fluoro-7H-pyrrolo[2,3-d]pyrimidin-7-yl)-2-(((2-aminoquinolin-7-yl)oxy)methyl)-3-methyltetrahydrofuran-3,4-diol], the pIC50 in the assay with Granta-519 cells is 7.52; in the assay on sDMA, 9.00; at PRMT5/MEP50 complex, 9.07.

With `CSC[C@H]1O[C@@H](n2ccc3c(N)ncnc32)[C@H](O)[C@]1(C)O` [Example 17, (2S,3S,4R,5R)-5-(4-amino-7H-pyrrolo[2,3-d]pyrimidin-7-yl)-3-methyl-2-((methylthio)methyl)tetrahydrofuran-3,4-diol], the pIC50 in the assay on Granta-519 cells is 3.70; in the assay with sDMA it was 6.00; at PRMT5/MEP50 complex it was 6.05.

In general, pIC50 refers to the IC50 on a negative log10 scale, so that one unit is a factor of ten.
